Here are results for eleven compounds from ChEMBL document CHEMBL5375983, “Discovery of YSR734: A Covalent HDAC Inhibitor with Cellular Activity in Acute Myeloid Leukemia and Duchenne Muscular Dystrophy” (J Med Chem, 2023).

Molecules are shown by their SMILES. Activity calls are given as the source filed them. The rule behind the calls is not given here.

The nature of data set [1]: Half life in CD-1 mouse at 10 mg/kg, ip measured upto 12 hrs by LC-MS/MS analysis. In kind it is ADME, organism-based. As to conditions: in vivo.
A short description of data set [2]: Tmax in CD-1 mouse at 10 mg/kg, ip measured upto 12 hrs by LC-MS/MS analysis. In kind it is ADME, organism-based. Conditions: in vivo.
The test system of a further data set is RS4-11. Kind of data set: Cytotoxicity against human RS4-11 cells assessed as inhibition of cell growth incubated for 72 hrs by celltiter-blue viability assay. In kind it is functional, cell-based. Conditions: RS4-11, 72 h.
The target of data set [3] is T1, Histone deacetylase 1 (Homo sapiens, UniProt Q13547). As to the kind of experiment: Inhibition of HDAC1 (unknown origin) using 6-carboxyfluorescein peptide as substrate preincubated with compound for 6 hrs followed by substrate addition by electrophoretic mobility shift assay.
Data set [4] can be described thus: AUCinfinity in CD-1 mouse at 10 mg/kg, ip measured upto 12 hrs by LC-MS/MS analysis. In kind it is ADME, organism-based. Details: time < 12 hrs, dose 10 mg/kg, route ip. Conditions: in vivo.
For another data set, the target named is T2, Histone deacetylase 8 (Homo sapiens, UniProt Q9BY41).
T2 sequence (Q9BY41 whole entry): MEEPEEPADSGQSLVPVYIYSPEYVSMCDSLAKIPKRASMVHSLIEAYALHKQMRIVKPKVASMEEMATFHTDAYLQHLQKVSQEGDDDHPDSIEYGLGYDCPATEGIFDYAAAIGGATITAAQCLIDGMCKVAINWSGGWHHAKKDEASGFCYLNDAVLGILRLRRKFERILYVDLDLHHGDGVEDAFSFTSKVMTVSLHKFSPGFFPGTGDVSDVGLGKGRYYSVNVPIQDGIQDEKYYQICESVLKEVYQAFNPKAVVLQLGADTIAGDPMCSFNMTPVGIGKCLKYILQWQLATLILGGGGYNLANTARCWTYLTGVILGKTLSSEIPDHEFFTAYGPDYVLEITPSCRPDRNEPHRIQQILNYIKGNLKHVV
Kind of data set: Inhibition of full length recombinant human HDAC8 expressed in Sf9 cells using 6-carboxyfluorescein peptide as substrate preincubated with compound followed by substrate addition and measured after 3 hrs by electrophoretic mobility shift assay.

The target in data set [5] is T3, Histone deacetylase 2 (Homo sapiens, UniProt Q92769). As to the kind of experiment: Inhibition of HDAC2 (unknown origin) using 6-carboxyfluorescein peptide as substrate preincubated with compound for 2 hrs followed by substrate addition by electrophoretic mobility shift assay.
Data set [6] relates to MV4-11. As to the kind of experiment: Cytotoxicity against human MV4-11 cells assessed as inhibition of cell growth incubated for 72 hrs by celltiter-blue viability assay. In kind it is functional, cell-based. As to conditions: MV4-11, 72 h.
Data set [7] can be described thus: Glutathione reactivity assessed as compound consumption at 500 nM incubated for 16 hrs by LC-MS/MS analysis. The format is ADME. Conditions: glutathione solution, read-out: Drug metabolism.
Data set [8] has as its target T4, Histone deacetylase 3 (Homo sapiens, UniProt O15379). As to the kind of experiment: Inhibition of full length recombinant human HDAC3 expressed in Sf9 cells using 6-carboxyfluorescein peptide as substrate preincubated with compound followed by substrate addition and measured after 3 hrs by electrophoretic mobility shift assay. In kind it is cell-based.
In data set [9] the target is T4, Histone deacetylase 3. Kind of data set: Inhibition of full length recombinant human HDAC3 expressed in Sf9 cells using 6-carboxyfluorescein peptide as substrate preincubated with compound for 6 hrs followed by substrate addition and measured after 3 hrs by electrophoretic mobility shift assay. The format is cell-based.
For data set [10], the target named is T3, Histone deacetylase 2. Kind of data set: Inhibition of HDAC2 (unknown origin) using 6-carboxyfluorescein peptide as substrate preincubated with compound for 6 hrs followed by substrate addition by electrophoretic mobility shift assay.
Data set [11] is described as follows: Cytotoxicity against human MRC9 cells assessed as inhibition of cell growth incubated for 72 hrs by celltiter-blue viability assay. In kind it is toxicity, cell-based.
Data set [12] is described as follows: Selectivity index, ratio of IC50 for cytotoxicity against human MRC9 cells to IC50 for cytotoxicity against human MV4-11 cells.
Data set [13] concerns the target T1, Histone deacetylase 1. Kind of data set: Inhibition of HDAC1 (unknown origin) using 6-carboxyfluorescein peptide as substrate preincubated with compound followed by substrate addition by electrophoretic mobility shift assay.
A short description of data set [14]: Cmax in CD-1 mouse at 10 mg/kg, ip measured upto 12 hrs by LC-MS/MS analysis. In kind it is ADME, organism-based. Details: time < 12 hrs, dose 10 mg/kg, route ip. As to conditions: in vivo.
The target of data set [15] is T4, Histone deacetylase 3. As to the kind of experiment: Inhibition of full length recombinant human HDAC3 expressed in Sf9 cells using 6-carboxyfluorescein peptide as substrate preincubated with compound for 2 hrs followed by substrate addition and measured after 3 hrs by electrophoretic mobility shift assay. In kind it is cell-based.
For data set [16], the target named is T3, Histone deacetylase 2. As to the kind of experiment: Inhibition of HDAC2 (unknown origin) using 6-carboxyfluorescein peptide as substrate preincubated with compound followed by substrate addition by electrophoretic mobility shift assay.
Data set [17] in a line: Stability in human whole blood assessed as half life at 100 uM measured upto 40 mins by LC-MS/MS analysis. In kind it is ADME, tissue-based.
In data set [18] the target is Histone deacetylase 1/2/3 (Homo sapiens) (UniProt Q13547+O15379+Q92769). Kind of data set: […] binding affinity to HDAC1/2/3 in human MV4-11 cells assessed as increase in Ac-histone-H3 level at […] incubated for 6 hrs followed by compound washout and measured after 16 hrs by Western blot analysis. The format is cell-based. Conditions: dose 2.5 µM.
The nature of data set [19]: Glutathione reactivity assessed as compound consumption at 500 nM measured after 1 to 3 hrs by LC-MS/MS analysis. The format is ADME. Conditions: glutathione solution, time 1-3 hrs, read-out: Activity.
Data set [20] has as its target T3, Histone deacetylase 2. Kind of data set: Binding affinity to recombinant full length HDAC2 catalytic domain Cys274 (unknown origin) assessed as formation of single covalent adduct at 50 uM incubated for 2 hrs by trypsin-digest protein mapping analysis.
Data set [21] in a line: MRT in CD-1 mouse at 10 mg/kg, ip measured upto 12 hrs by LC-MS/MS analysis. The format is ADME, organism-based. As to conditions: in vivo.
The test system of data set [22] is MV4-11. As to the kind of experiment: Induction of apoptosis in human MV4-11 cells assessed as healthy cells at 1 uM measured after 6 hrs by annexin V-FITC/PI staining based FACS assay (reference value: 63.50%). In kind it is functional.
Data set [23] has as its system MV4-11. Kind of data set: Induction of apoptosis in human MV4-11 cells assessed as late apoptotic cells at 4 uM measured after 6 hrs by annexin V-FITC/PI staining based FACS assay (reference value: 16.21%). In kind it is functional.
For data set [24], the system named is MV4-11. Kind of data set: Induction of apoptosis in human MV4-11 cells assessed as late apoptotic cells at 1 uM measured after 6 hrs by annexin V-FITC/PI staining based FACS assay (reference value: 16.21%). The format is functional.
A further data set concerns the target T5, Histone deacetylase 11 (Homo sapiens, UniProt Q96DB2).
T5 sequence (Q96DB2 whole entry): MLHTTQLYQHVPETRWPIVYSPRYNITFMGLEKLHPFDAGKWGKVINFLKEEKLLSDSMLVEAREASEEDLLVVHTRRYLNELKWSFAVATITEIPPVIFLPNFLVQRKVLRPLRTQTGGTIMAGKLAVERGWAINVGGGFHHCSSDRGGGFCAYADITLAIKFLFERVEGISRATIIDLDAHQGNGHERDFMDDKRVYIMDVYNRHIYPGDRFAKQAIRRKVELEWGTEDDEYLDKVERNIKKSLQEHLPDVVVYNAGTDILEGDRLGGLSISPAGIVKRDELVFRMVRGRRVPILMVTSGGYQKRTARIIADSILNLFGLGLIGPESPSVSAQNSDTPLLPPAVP
As to the kind of experiment: Inhibition of full length recombinant human HDAC11 expressed in Sf9 cells using 6-carboxyfluorescein peptide as substrate preincubated with compound for 6 hrs followed by substrate addition and measured after 17 hrs by electrophoretic mobility shift assay.

The subject of data set [25] is MV4-11. As to the kind of experiment: Induction of apoptosis in human MV4-11 cells assessed as healthy cells at 4 uM measured after 6 hrs by annexin V-FITC/PI staining based FACS assay (reference value: 63.50%). The format is functional.

T1 sequence (Q13547 whole entry): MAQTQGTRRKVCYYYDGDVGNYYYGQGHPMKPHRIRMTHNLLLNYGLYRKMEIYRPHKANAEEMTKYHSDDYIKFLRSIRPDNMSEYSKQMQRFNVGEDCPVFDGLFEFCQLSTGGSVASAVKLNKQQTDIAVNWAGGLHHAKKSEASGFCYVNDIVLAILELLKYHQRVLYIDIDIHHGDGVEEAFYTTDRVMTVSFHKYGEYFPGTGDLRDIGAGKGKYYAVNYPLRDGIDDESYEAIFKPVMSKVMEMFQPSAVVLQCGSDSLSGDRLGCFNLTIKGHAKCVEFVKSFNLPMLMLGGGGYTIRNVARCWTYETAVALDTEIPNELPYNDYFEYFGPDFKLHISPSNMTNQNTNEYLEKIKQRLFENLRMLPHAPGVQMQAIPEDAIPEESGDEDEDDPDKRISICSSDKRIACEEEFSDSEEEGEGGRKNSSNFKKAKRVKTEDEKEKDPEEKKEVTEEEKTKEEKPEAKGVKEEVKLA
T4 sequence (O15379 whole entry): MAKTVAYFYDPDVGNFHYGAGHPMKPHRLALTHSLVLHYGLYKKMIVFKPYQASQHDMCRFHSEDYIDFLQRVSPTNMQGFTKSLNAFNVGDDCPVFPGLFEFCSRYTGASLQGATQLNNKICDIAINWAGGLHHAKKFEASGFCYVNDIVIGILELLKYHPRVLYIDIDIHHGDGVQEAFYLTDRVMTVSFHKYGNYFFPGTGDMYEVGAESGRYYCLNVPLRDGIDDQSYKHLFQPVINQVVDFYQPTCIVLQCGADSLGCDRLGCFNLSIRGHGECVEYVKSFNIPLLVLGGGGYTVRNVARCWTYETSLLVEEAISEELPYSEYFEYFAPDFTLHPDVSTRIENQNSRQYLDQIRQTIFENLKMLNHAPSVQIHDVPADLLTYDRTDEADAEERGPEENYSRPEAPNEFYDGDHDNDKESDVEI
T3 sequence (Q92769 whole entry): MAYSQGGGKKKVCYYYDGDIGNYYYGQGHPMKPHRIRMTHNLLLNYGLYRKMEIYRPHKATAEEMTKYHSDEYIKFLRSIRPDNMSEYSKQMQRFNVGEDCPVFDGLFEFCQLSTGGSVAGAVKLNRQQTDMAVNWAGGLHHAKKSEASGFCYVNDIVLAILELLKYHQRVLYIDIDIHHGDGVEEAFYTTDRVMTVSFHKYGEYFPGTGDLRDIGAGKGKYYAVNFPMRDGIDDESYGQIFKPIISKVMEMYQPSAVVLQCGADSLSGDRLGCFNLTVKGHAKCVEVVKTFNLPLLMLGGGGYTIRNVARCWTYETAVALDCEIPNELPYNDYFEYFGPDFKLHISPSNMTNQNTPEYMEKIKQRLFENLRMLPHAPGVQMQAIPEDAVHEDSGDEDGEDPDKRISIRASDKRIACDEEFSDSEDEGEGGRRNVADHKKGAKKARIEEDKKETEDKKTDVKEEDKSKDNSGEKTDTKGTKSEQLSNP

In data set [1], `Nc1ccccc1NC(=O)c1ccc(CNC(=O)OC2CCCCC2)cc1` had a half-life of 311 min. For the same compound, the Tmax in [2] stood at 4.8 min. In addition, the IC50 is 620 nM in the data set with RS4-11; 64 nM at Histone deacetylase 1 [3]; above 10000 nM on Histone deacetylase 8; 490 nM on Histone deacetylase 2 [5]; 1070 nM in the data set on MV4-11 [6]; 273 nM on Histone deacetylase 3 [8]. For the same compound, the IC50 at Histone deacetylase 3 [9] was 36 nM; at Histone deacetylase 2 [10], 274 nM; on Histone deacetylase 1 [13], 903 nM; on Histone deacetylase 3 [15] it was 73 nM; on Histone deacetylase 2 [16], above 1000 nM. This compound displayed an AUC(0-inf) in data set [4] of 1810 ng·h/mL. The degraded at 16 h, 0.5 µM in data set [7] was below 10%. The IC50 at 72 h in data set [11] came out at 10900 nM. In addition, the “Ratio IC50” value in [12] is on record as 10. The same compound registered a Cmax in data set [14] of 2700 ng/mL.
Take `C=CC(=O)N1CCC[C@@H](n2nc(-c3ccc(Oc4ccccc4)cc3)c3c(N)ncnc32)C1` [IBRUTINIB]: in data set [17], the half-life at 100 µM was 64 min.
As for `Nc1ccccc1NC(=O)c1ccc(CNC(=O)OC2CCN(S(=O)(=O)c3c(F)c(F)cc(F)c3F)CC2)cc1`, the result in data set [18] was Active.
Consider `Nc1ccccc1NC(=O)c1ccc(CNC(=O)OC2CCN(C(=O)CCl)CC2)cc1`, for which the IC50 on Histone deacetylase 2 [5] was above 1000 nM; at Histone deacetylase 2 [10], 720 nM; on Histone deacetylase 1 [13] it was above 1000 nM; at Histone deacetylase 2 [16] it was above 1000 nM. The degraded at 0.5 µM in data set [19] is above 50%.
Regarding `C=CS(=O)(=O)N1CCC(OC(=O)NCc2ccc(C(=O)Nc3ccccc3N)cc2)CC1`, the IC50 on Histone deacetylase 2 [5] was 919 nM; at Histone deacetylase 2 [10], 380 nM; on Histone deacetylase 1 [13] it was 445 nM; on Histone deacetylase 2 [16], above 1000 nM. Besides, the outcome on Histone deacetylase 2 [20] was Active. Also, the degraded at 0.5 µM in data set [19] is above 50%.
Turning to `CN(C)C/C=C/C(=O)N1CCC(OC(=O)NCc2ccc(C(=O)Nc3ccccc3N)cc2)CC1`, the IC50 with RS4-11 came out at 1240 nM; at Histone deacetylase 2 [5] it was 295 nM; in the data set on MV4-11 [6], 1800 nM; on Histone deacetylase 2 [10], 180 nM; on Histone deacetylase 1 [13], 200 nM; on Histone deacetylase 2 [16], 808 nM. Besides, the IC50 at 72 h in data set [11] came to 31200 nM. For the same compound, in data set [12], the “Ratio IC50” value was 17.
In data set [1], `Nc1ccccc1NC(=O)c1ccc(CNC(=O)OCc2cccnc2)cc1` [ENTINOSTAT] showed a half-life of 191 min. Besides, the MRT in data set [21] is 57.6 min. The Tmax in [2] turned out to be 15 min. Besides, the results for the IC50 in the data set with RS4-11, with MV4-11 [6] and at Histone deacetylase 11 were 300 nM, 710 nM and above 1000 nM, respectively. The same compound displayed an AUC(0-inf) in data set [4] of 5260 ng·h/mL. The Activity was determined as 53.43% in the data set on MV4-11 [22], 30.45% in the data set on MV4-11 [23], 23.15% in the data set with MV4-11 [24] and 40.57% with MV4-11 [25]. In [7], the degraded at 16 h, 0.5 µM is below 10%. Besides, the IC50 at 72 h in data set [11] is 10200 nM. Moreover, in [17], the half-life at 100 µM was 45 min. In data set [14], this compound showed a peak concentration (Cmax) of 6250 ng/mL.
For `Nc1ccccc1NC(=O)c1ccc(CNC(=O)OC2CCN(S(=O)(=O)CCl)CC2)cc1`, the IC50 with RS4-11 is 720 nM; on Histone deacetylase 2 [5], 517 nM; in the data set on MV4-11 [6] it was 1380 nM; on Histone deacetylase 2 [10], 200 nM; at Histone deacetylase 1 [13], 369 nM; at Histone deacetylase 2 [16] it was above 1000 nM. The IC50 at 72 h in data set [11] amounted to 15900 nM. In addition, the “Ratio IC50” value in data set [12] is recorded as 12.
For `C=CC(=O)N1CCC(OC(=O)NCc2ccc(C(=O)Nc3ccccc3N)cc2)CC1`, the IC50 with RS4-11 was 1530 nM; on Histone deacetylase 2 [5], 861 nM; with MV4-11 [6] it was 2320 nM; at Histone deacetylase 2 [10], 379 nM; on Histone deacetylase 1 [13] it was 592 nM; on Histone deacetylase 2 [16], above 1000 nM. In addition, the IC50 at 72 h in [11] stood at 21600 nM. In addition, the “Ratio IC50” value in data set [12] stood at 9.
Regarding `C=C=CC(=O)N1CCC(OC(=O)NCc2ccc(C(=O)Nc3ccccc3N)cc2)CC1`, the IC50 is 823 nM at Histone deacetylase 2 [5], 393 nM at Histone deacetylase 2 [10], 685 nM at Histone deacetylase 1 [13] and above 1000 nM at Histone deacetylase 2 [16].
As to `C#CC(=O)N1CCC(OC(=O)NCc2ccc(C(=O)Nc3ccccc3N)cc2)CC1`, the IC50 at Histone deacetylase 2 [5] is 759 nM; on Histone deacetylase 2 [10] it was 328 nM; at Histone deacetylase 1 [13] it was 665 nM; at Histone deacetylase 2 [16] it was above 1000 nM. In addition, the degraded at 0.5 µM in [19] is above 50%.
